From patent publication US20030162803A1, “Anhydrovinblastine for the treatment of cancer” (priority 1997, published 2003)
“Also recorded” adds a separate entry of the source.

Legend:
[1] = tested on: C-4 cells; assay: Cytotoxicity assay, C-4 (FIG. 8); format: cell-based, human; conditions: 3 day incubation
Description: The IC50s for the SK0V3 and C-4 cells were 4.0 μM and 0.02 μM respectively. Both cell lines were obtained from the ATCC and grown using standard growth techniques and medium as described above. The IC50s were determined through standard cytoxicity assays described above, with each well containing approximately 10^4 cells.

[2] = tested on: H460 human non-small cell lung carcinoma tumor xenograph; assay: H460 SC tumor mouse model; format: in vivo, SCID/Rag-2 mice
Description: Cultures of H460 Human Lung cells are available from the British Columbia Cancer Research Center. Cells were injected subcutaneously twice into mature male Rag-2 mice (24 mice, 1×10^6 cells/mouse) using a 26-gauge needle. The H460 cells were suspended in a Hank's Balanced Salt Solution without calcium. Tumors were allowed to form in the mice for 11 days.
When the tumors were well established, four separate groups of mice, were selected for administration of the three test articles (i.e. one group for each test article of AHVB bisulphate, AHVB ditartrate, and Navelbine™) and one control.
AHVB bisulphate and ditartrate, and Navelbine™ were solubilized using 5% dextrose saturated with Argon. Both of these articles were at a concentration of 20 mg/ml. Any dose dilutions were made with 5% dextrose.
The articles were administered intravenously on the days 1, 5 and 9, as were controls of 5% dextrose. Body weights and tumor measurements with calipers were taken every day for the first 10 days and then every other day for the remainder of the study.
Following administration of the test articles, the animals; weight and tumor size (using calipers) were determined daily for the first 10 days and then every other day for the remainder of the study. If the tumor size reached 1 gram in weight or the tumor started to ulcerate, the animals were sacrificed (by carbon dioxide inhalation) and subjected to necropsy. Animals were also monitored at least daily for signs of stress for the full length of the study. Animals manifesting severe symptoms of stress (rapid weight loss, panting, hunched posture, scruffy coat) were also sacrificed and a necropsy performed.
The results of the efficacy studies are given in FIG. 9 and present averages of data from 6 or fewer animals. […] Each tumor was measured in length and width and the volume of each tumor was calculated by […]. […] The calculation was performed each day the tumors were measured. The standard deviation of the mean and the standard error of the mean were calculated with the error bars appearing in the graph in FIG. 9. […]

[3] = Phase I clinical trial, toxicity and MTD; format: in vivo, human patients
Description: Patients had normal bone marrow, hepatic and renal function. Twenty-four patients were treated with escalating doses of AHVB, administered as a 1 hour infusion every 3 weeks. The 24 patients comprised 12 male and 12 female patients with a median age of 60 years (range 27-75 years). Twenty-one of the 24 patients were evaluable. Diagnoses were non-small cell lung cancer (NSCLC), colorectal cancer, soft tissue sarcoma, pancreatic cancer, breast cancer and metastatic neuroendocrine cancer in 11, 5, 4, 1, 1, and 1 patient(s), respectively. […] A total of 51 courses were administered at doses of 2.5, 5, 10,16.5, 21,25 and 30 mg/m^2 to 1,3, 1,3, 6, 6 and 1 patient(s), respectively (see Table 4).
The first patient was entered in the trial at the 2.5 mg/m^2 dose level. […] Five patients were enrolled at the 16.5 mg/m^2 dose level because two patients were not evaluable and had to be replaced. […] Six patients were enrolled at the 25 mg/m^2 dose level. […] This dose level, therefore, exceeded the MTD.
Seven patients were enrolled at the 21 mg/m^2 dose level, but only 6 were evaluable for toxicity due to one patient developing Grade 2 hypertension, headache, nausea and vomiting at the start of the infusion, which recurred on rechallenge. This patient received only 15 ml of the drug solution and, therefore, was not evaluable to assess toxicity. […] The nausea and vomiting observed at the 21 mg/m^2 dose level was a DLT. It was determined that the 21 mg/m^2 dose is the MTD.

[4] = IV 10 mg/kg and 20 mg/kg on days 1, 5 and 9

Q: Which results are given for CCC1=C[C@H]2CN(CCc3c([nH]c4ccccc34)[C@@](C(=O)OC)(c3cc4c(cc3OC)N(C)[C@H]3[C@@](O)(C(=O)OC)[C@H](OC(C)=O)[C@]5(CC)C=CCN6CC[C@]43[C@@H]65)C2)C1 [AHVB, 3′,4′-anhydrovinblastine]?
A: IC50 [1]: 20 nM; toxicity compared with Navelbine [2, 4]: less toxic than Navelbine™; tumor growth inhibition compared with Navelbine [2, 4]: greater tumor growth inhibition; activity compared with vincristine and vinorelbine ([2]; human tumor xenografts of NSCLC, equitoxic doses): superior activity to that of both vincristine and vinorelbine; toxicities ([3]; 5 mg/m^2, 1 hour IV infusion every 3 weeks): Grade 2 anorexia, hyperamylasemia, and increased serum creatinine; also recorded: One patient treated developed Grade 2 elevated amylase,; also recorded: elevated creatine and anorexia requiring an additional 2; toxicities ([3]; 10 mg/m^2, 1 hour IV infusion every 3 weeks): One patient treated with minimal toxicity; toxicities ([3]; 16.5 mg/m^2, 1 hour IV infusion every 3 weeks): Grade 2 toxicities including infusional hypertension, anemia and dizziness; also recorded: replaced. The next patient showed Grade 2 toxicities; also recorded: two patients had minimal toxicities; toxicities ([3]; 21 mg/m^2, 1 hour IV infusion every 3 weeks): Grade 3 nausea and vomiting and Grade 2 constipation; also recorded: patient exhibited Grade 3 nausea and vomiting. This does; toxicities ([3]; 25 mg/m^2, 1 hour IV infusion every 3 weeks): DLTs including Grade 4 level constipation and Grade 3 nausea and vomiting; also recorded: grade 4 constipation, Grade 3 tumor pain, nausea, vomiting,; also recorded: anemia and Grade 4 neutropenia (1 patient); toxicities ([3]; 30 mg/m^2, 1 hour IV infusion every 3 weeks): One patient treated developed Grade 3 leukopenia.; MTD (maximum-tolerated dose) ([3]; 1 hour IV infusion every 3 weeks, patients): 21 mg/m^2
